Source: patent US11752165B2, “Basic chemotherapeutic intratumour injection formulation” (US NANO FOOD & DRUG, INC., priority 2020, dated 2023)
In brackets after ≈: the same amount, converted by molar mass. Entries after “also recorded” stand apart in the source; their conditions may differ. Counter-ions that a name gives are not always drawn. Like-named read-outs stand apart in the source and are kept apart here.

What was measured:
[1] = cited from earlier work; for Solubility in water (in words): background statement
[2] = Stability of the basic (free base) chemical; settings: detailed description
[3] = background statement; cited from earlier work
[4] = background statement, cited from earlier work
Solubility in water = settings: for Solubility in water (in words): detailed description; for Solubility in H2O: Table 2, yes/no
[5] = Solubility in oil, ethanol and other organic liquids; settings: for Solubility in organic liquids (in words): detailed description; for Solubility in ethanol / Solubility in oil: Table 2, yes/no
[6] = 5 mg/mL aqueous solution; cited from earlier work
[7] = format: physicochemical
[8] = cited from earlier work
mice = settings: mouse, in vivo, ip; cited from earlier work
[9] = serum, rapid intravenous injection, patients with cancer

| Compound | Solubility in water (in words) [1] | Stability of the base form (in words) [2] | Stability of the basic chemical (in words) [3] | Solubility in organic liquids (in words) [4] | Solubility in water (in words) (Solubility in water) | Solubility in organic liquids (in words) [5] | other results |
| --- | --- | --- | --- | --- | --- | --- | --- |
| COc1cccc2c1C(=O)c1c(O)c3c(c(O)c1C2=O)C[C@@](O)(C(C)=O)C[C@@H]3O[C@H]1C[C@H](N)[C@H](O)[C@H](C)O1 [Daunorubicin base, daunorubicin] | insoluble in water | not stable in base form | unstable | slightly soluble in an organic liquid | insoluble in water | slightly soluble in an organic liquid such as oleic acid, PEG and ethanol | – |
| COc1cccc2c1C(=O)c1c(O)c3c(c(O)c1C2=O)C[C@@](O)(C(C)=O)C[C@@H]3O[C@H]1C[C@H](N)[C@H](O)[C@H](C)O1 [Daunorubicin hydrochloride] | – | – | – | – | – | – | Solubility in water (in words) ([1]; hydrochloride): soluble in water |
| COc1cccc2c1C(=O)c1c(O)c3c(c(O)c1C2=O)C[C@@](O)(C(=O)CO)C[C@@H]3O[C@H]1C[C@H](N)[C@H](O)[C@H](C)O1 [Doxorubicin Hydrochloride] | – | – | – | – | – | – | Solubility in water (in words) ([1]; hydrochloride): soluble in water; pH of aqueous solution [6]: 4.0-5.5 |
| COc1cccc2c1C(=O)c1c(O)c3c(c(O)c1C2=O)C[C@@](O)(C(=O)CO)C[C@@H]3O[C@H]1C[C@H](N)[C@H](O)[C@H](C)O1 [Doxorubicin base, doxorubicin] | insoluble in water | – | unstable | slightly soluble in an organic liquid | – | slightly soluble alcohols; also recorded: moderately soluble in anhydrous methanol | pH in water ([7]; 10 mg in 5 ml of water): 7.9 |
| COc1cccc2c1C(=O)c1c(O)c3c(c(O)c1C2=O)C[C@@](O)(C(=O)CO)C[C@@H]3O[C@H]1C[C@H](N)[C@@H](O)[C@H](C)O1 [Epirubicin hydrochloride] | – | – | – | – | – | – | Solubility in water (in words) ([1]; hydrochloride): soluble in water |
| O=C1c2c(O)ccc(O)c2C(=O)c2c(NCCNCCO)ccc(NCCNCCO)c21 [Mitoxantrone base, mitoxantrone] | insoluble in water | the basic form is stable | – | slightly soluble in an organic liquid | sparingly soluble in water | slightly soluble in methanol; also recorded: practically insoluble in acetonitrile chloroform and acetone | pH in water ([7]; 25 mg in 10 ml water): 9.42 |
| CC[C@]1(O)C[C@@H]2CN(CCc3c([nH]c4ccccc34)[C@@](C(=O)OC)(c3cc4c(cc3OC)N(C)[C@H]3[C@@](O)(C(=O)OC)[C@H](OC(C)=O)[C@]5(CC)C=CCN6CC[C@]43[C@@H]65)C2)C1 [Vinblastine sulphate] | One part is soluble in 10 parts of water | – | – | – | – | – | Solubility in H2O (Solubility in water; listed as Vinblastine H2SO4): yes; Solubility in water (in words) (Solubility in water; listed as Vinblastine sulfate): soluble in water; Crossing of the blood brain barrier (in words) ([8]; following IV administration): crosses the blood brain barrier poorly; Solubility in ethanol ([5]; listed as Vinblastine H2SO4): no; Solubility in oil ([5]; listed as Vinblastine H2SO4): no |
| CC[C@]1(O)C[C@@H]2CN(CCc3c([nH]c4ccccc34)[C@@](C(=O)OC)(c3cc4c(cc3OC)N(C)[C@H]3[C@@](O)(C(=O)OC)[C@H](OC(C)=O)[C@]5(CC)C=CCN6CC[C@]43[C@@H]65)C2)C1 [Vinblastine] | – | unstable at room temperature | – | – | practically insoluble in water | soluble in alcohol, acetone, chloroform, ethyl acetate | Solubility in water (in words) ([1]; listed as vinblastine): insoluble in water; Solubility in organic liquids (in words) ([4]; listed as vinblastine): slightly soluble in an organic liquid; Solubility in H2O (Solubility in water): no; Solubility in water (in words) (Solubility in water; listed as vinblastine base): not soluble in water; Initial half-life [8, 9]: 3.7 min; Middle half-life [8, 9]: 1.6 h; Terminal half-life [8, 9]: 24.8 h; Solubility in ethanol [5]: yes; Solubility in oil [5]: yes |
| CC[C@]1(O)C[C@H]2CN(CCc3c([nH]c4ccccc34)[C@@](C(=O)OC)(c3cc4c(cc3OC)N(C=O)[C@H]3[C@@](O)(C(=O)OC)[C@H](OC(C)=O)[C@]5(CC)C=CCN6CC[C@]43[C@@H]65)C2)C1 [Vincristine sulfate] | freely soluble in water | – | – | – | – | – | Solubility in H2O (Solubility in water; listed as Vincristine H2SO4): yes; Solubility in ethanol ([5]; listed as Vincristine H2SO4): no; Solubility in oil ([5]; listed as Vincristine H2SO4): no |
| CC[C@]1(O)C[C@H]2CN(CCc3c([nH]c4ccccc34)[C@@](C(=O)OC)(c3cc4c(cc3OC)N(C=O)[C@H]3[C@@](O)(C(=O)OC)[C@H](OC(C)=O)[C@]5(CC)C=CCN6CC[C@]43[C@@H]65)C2)C1 [Vincristine] | practically insoluble in water | – | unstable | soluble in alcohol, acetone, and chloroform | not soluble in water | – | Solubility in water ([1]; 25° C.): 2.27 µg/mL (≈ 2.75 µM); Solubility in water (in words) ([1]; listed as vincristine): insoluble in water; Solubility in organic liquids (in words) ([4]; listed as vincristine): slightly soluble in an organic liquid; Solubility in H2O (Solubility in water): no; LD50 (mice): 5.2 mg/kg; Solubility in ethanol [5]: yes; Solubility in oil [5]: yes |
| CC[C@]1(O)C[C@@H]2CN(CCc3c([nH]c4ccccc34)[C@@](C(=O)OC)(c3cc4c(cc3OC)N(C)[C@H]3[C@@](O)(C(N)=O)[C@H](O)[C@]5(CC)C=CCN6CC[C@]43[C@@H]65)C2)C1 [Vindesine] | insoluble in water | not stable | unstable | slightly soluble in an organic liquid | practically insoluble in water | soluble in alcohol, acetone | Solubility in H2O (Solubility in water): no; Solubility in ethanol [5]: yes; Solubility in oil [5]: yes |
| COc1cccc2c1C(=O)c1c(O)c3c(c(O)c1C2=O)C[C@@](O)(C(=O)CO)C[C@@H]3O[C@H]1C[C@H](N)[C@@H](O)[C@H](C)O1 [epirubicin base, epirubicin] | insoluble in water | – | unstable | slightly soluble in an organic liquid | insoluble in water | – | Solubility in water (Solubility in water): 0.093 mg per ml |
| C=C1C[C@@H]2CC[C@@]34C[C@H]5O[C@H]6[C@@H](O3)[C@H]3O[C@H](CC[C@@H]3O[C@H]6[C@H]5O4)CC(=O)C[C@@H]3[C@@H](OC)[C@@H](C[C@H](O)CN)O[C@H]3C[C@H]3O[C@@H](CC[C@@H]1O2)C[C@@H](C)C3=C [eribulin] | insoluble in water | – | unstable | slightly soluble in an organic liquid | – | – | – |
